Common to all, as to format: cell-based
For data set [1], the system named is Klebsiella pneumoniae 968733. The conditions noted are these: 968733. In short, it runs like this:
(§1)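 Peptides are tested in serial two-fold dilutions against about 10^6 CFU/mL in MH-II broth containing 0.002% P-80 (v/v, final). Plates incubate 18-20 h at 35° C, and the MIC is the lowest peptide level (μg/mL) showing no visible growth.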

Data set [2] relates to Pseudomonas aeruginosa ATCC 27853. The conditions noted are these: ATCC 27853. In short, it runs like this: as §1
The subject of data set [3] is Acinetobacter baumannii DSM 30008. The conditions noted are these: DSM 30008. In outline: as §1
Data set [4] relates to Klebsiella pneumoniae SSI #3010. The conditions noted are these: SSI #3010. In short, it runs like this: as §1
The test system of data set [5] is Escherichia coli ATCC 25922. The conditions noted are these: ATCC 25922. In outline:
as §1

For data set [6], the system named is Acinetobacter baumannii 872842. The conditions noted are these: 872842. In short, it runs like this: as §1
Data set [7] deals with Enterobacter cloacae 848840. The conditions noted are these: 848840. In short, it runs like this:
as §1

Data set [8] concerns Escherichia coli 926415. The conditions noted are these: 926415. In outline: as §1
The subject of data set [9] is human red blood cells (hRBC). Nature of the data set: Hemolysis. The conditions noted are these: red cells of human, 1 h, 200. In outline:
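First, fresh human erythrocytes are washed in PBS; next, they are incubated at 20% (v/v) with compound at 200 μg/mL for 1 h at 37° C. Finally, centrifuged supernatants are diluted and OD540 is taken relative to the Triton X-100 lysis control.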

SMILES strings stand for the structures. ≈ marks a conversion by molar mass, not a printed value. Where a SMILES comes first, the peptide text is derived from it. Bridges are numbered along the chain shown (N, C = ends). Roman numbers before positions name the chains, in order. [ ]: non-standard residue; d: D form. Tle = CC(C)(C)[C@H](N)C(=O)O; Hiv = CC(C)[C@H](O)C(=O)O; dDab = NCC[C@@H](N)C(=O)O; Dab = NCC[C@H](N)C(=O)O; Dap = NC[C@H](N)C(=O)O

On to `CC(=O)N[C@H](C(=O)N[C@H]1CCNC(=O)C[C@@H](C(=O)N[C@@H](CO)C(N)=O)NC(=O)[C@H](C(C)(C)C)NC(=O)[C@H](CO)NC(=O)[C@H](Cc2c[nH]c3ccccc23)NC(=O)[C@H](CCN)NC(=O)[C@@H](CCN)NC(=O)[C@H](CCC(=O)N[C@@H](CCN)C(=O)N[C@H](C(=O)N[C@@H](CN)C(=O)N[C@H]2CCNC(=O)[C@H]([C@@H](C)O)NC(=O)[C@H](CCN)NC(=O)[C@H](CCN)NC(=O)[C@H](CC(C)C)NC(=O)[C@@H](CC(C)C)NC(=O)[C@H](CCN)NC2=O)[C@@H](C)O)NC(=O)[C@H](CO)NC(=O)[C@H](Cc2ccc(O)cc2)NC1=O)C(C)C` [Ex. 265] (I: Ac-V[Dab]YSE[dDab][Dab]WS[Tle]DS-NH2 / II: [Dab]T[Dap][Dab][Dab][dL]L[Dab][Dab]T; lactam I:2-I:11, II:4-II:C; amide I:5-II:N), for which the minimum inhibitory concentration (MIC) – broadly, the lowest concentration that inhibits growth of the organism – was determined as 0.25 mg/L (≈ 0.104 µM) in [1]; 0.125 mg/L (≈ 0.052 µM) in data set [2]; 0.0625 mg/L (≈ 0.026 µM) in data set [3]; 0.0625 mg/L (≈ 0.026 µM) in data set [4]; 0.0625 mg/L (≈ 0.026 µM) in data set [5]; 0.125 mg/L (≈ 0.052 µM) in data set [6]. The results for the MIC in data set [7] and in [8] were 0.5 mg/L (≈ 0.208 µM) and 0.125 mg/L (≈ 0.052 µM), respectively. Besides, in data set [9], the “Hemolysis at 200 μg/mL” value is listed as under 1%.
As for `CC(=O)N[C@H](C(=O)N[C@H]1CSSC[C@@H](C(=O)N[C@H](C(N)=O)[C@@H](C)O)NC(=O)[C@H](C(C)C)NC(=O)[C@H](CO)NC(=O)[C@H](Cc2c[nH]c3ccccc23)NC(=O)[C@H](CCN)NC(=O)[C@@H](CCN)NC(=O)[C@H](CCC(=O)N[C@@H](CCN)C(=O)N[C@H](C(=O)N[C@@H](CN)C(=O)N[C@H]2CCNC(=O)[C@H]([C@@H](C)O)NC(=O)[C@H](CCN)NC(=O)[C@H](CCN)NC(=O)[C@H](CC(C)C)NC(=O)[C@@H](CC(C)C)NC(=O)[C@H](CCN)NC2=O)[C@@H](C)O)NC(=O)[C@H](CO)NC(=O)[C@H](Cc2ccc(O)cc2)NC1=O)C(C)C` [Ex. 267] (I: Ac-VCYSE[dDab][Dab]WSVCT-NH2 / II: [Dab]T[Dap][Dab][Dab][dL]L[Dab][Dab]T; disulfide I:2-I:11; amide I:5-II:N; lactam II:4-II:C), the MIC in data set [1] is 0.125 mg/L (≈ 0.0518 µM); in [2] it was 0.0625 mg/L (≈ 0.0259 µM); in [3], 0.0625 mg/L (≈ 0.0259 µM); in data set [4], 0.0625 mg/L (≈ 0.0259 µM); in data set [5] it was 0.03125 mg/L (≈ 0.013 µM); in [6], 0.0625 mg/L (≈ 0.0259 µM). Moreover, the MIC in [7] is 0.125 mg/L (≈ 0.0518 µM); in data set [8], 0.0625 mg/L (≈ 0.0259 µM). Also, the “Hemolysis at 200 μg/mL” value in [9] is recorded as under 1%.
As to `CC(=O)N[C@H](C(=O)N[C@H]1CSSC[C@@H](C(=O)N[C@@H](CO)C(N)=O)NC(=O)[C@H](C(C)C)NC(=O)[C@H](CCC(=O)O)NC(=O)[C@H](Cc2c[nH]c3ccccc23)NC(=O)[C@H](CCN)NC(=O)[C@@H](CCN)NC(=O)[C@H](CCC(=O)N[C@@H](CCN)C(=O)N[C@H](C(=O)N[C@@H](CN)C(=O)N[C@H]2CCNC(=O)[C@H]([C@@H](C)O)NC(=O)[C@H](CCN)NC(=O)[C@H](CCN)NC(=O)[C@H](CC(C)C)NC(=O)[C@@H](CC(C)C)NC(=O)[C@H](CCN)NC2=O)[C@@H](C)O)NC(=O)[C@H](CO)NC(=O)[C@H](Cc2ccc(O)cc2)NC1=O)C(C)C` [Ex. 268] (I: Ac-VCYSE[dDab][Dab]WEVCS-NH2 / II: [Dab]T[Dap][Dab][Dab][dL]L[Dab][Dab]T; disulfide I:2-I:11; amide I:5-II:N; lactam II:4-II:C), the MIC was found to be 0.5 mg/L (≈ 0.205 µM) in data set [1]; 0.125 mg/L (≈ 0.0512 µM) in data set [2]; 0.03125 mg/L (≈ 0.0128 µM) in data set [3]; 0.0625 mg/L (≈ 0.0256 µM) in data set [4]; 0.0625 mg/L (≈ 0.0256 µM) in [5]; 0.125 mg/L (≈ 0.0512 µM) in data set [6]. For the same molecule, the results for the MIC in [7] and in data set [8] were 0.25 mg/L (≈ 0.102 µM) and 0.5 mg/L (≈ 0.205 µM), respectively. In data set [9], the “Hemolysis at 200 μg/mL” value is on record as under 1%.
For the molecule `CC(C)C[C@@H]1NC(=O)[C@@H](CC(C)C)NC(=O)[C@H](CCN)NC(=O)[C@@H](NC(=O)[C@H](CN)NC(=O)[C@@H](NC(=O)[C@H](CCN)NC(=O)CC[C@@H]2NC(=O)[C@H](CO)NC(=O)[C@H](Cc3ccc(O)cc3)NC(=O)[C@@H](NC(=O)[C@@H](O)C(C)C)CSSC[C@@H](C(=O)N[C@@H](CO)C(N)=O)NC(=O)[C@H](C(C)(C)C)NC(=O)[C@H](CO)NC(=O)[C@H](Cc3c[nH]c4ccccc34)NC(=O)[C@H](CCN)NC(=O)[C@@H](CCN)NC2=O)[C@@H](C)O)CCNC(=O)[C@H]([C@@H](C)O)NC(=O)[C@H](CCN)NC(=O)[C@H](CCN)NC1=O` [Ex. 271] (I: H-[Hiv]CYSE[dDab][Dab]WS[Tle]CS-NH2 / II: [Dab]T[Dap][Dab][Dab][dL]L[Dab][Dab]T; disulfide I:2-I:11; amide I:5-II:N; lactam II:4-II:C), the MIC came to 0.0625 mg/L (≈ 0.0264 µM) in data set [1]; 0.0625 mg/L (≈ 0.0264 µM) in [2]; 0.03125 mg/L (≈ 0.0132 µM) in data set [3]; 0.0625 mg/L (≈ 0.0264 µM) in data set [4]; 0.03125 mg/L (≈ 0.0132 µM) in [5]; 0.0625 mg/L (≈ 0.0264 µM) in data set [6]. For the same molecule, the MIC turned out to be 0.25 mg/L (≈ 0.105 µM) in [7] and 0.0625 mg/L (≈ 0.0264 µM) in data set [8]. Besides, in data set [9], the “Hemolysis at 200 μg/mL” value is under 1%.
Consider `CC(=O)N[C@H](C(=O)N[C@H]1CSSC[C@@H](C(=O)N[C@@H](CO)C(N)=O)NC(=O)[C@H](C(C)C)NC(=O)[C@H](CO)NC(=O)[C@H](Cc2c[nH]c3ccccc23)NC(=O)[C@H](CCN)NC(=O)[C@@H](CCN)NC(=O)[C@H](CCC(=O)N[C@@H](CCN)C(=O)N[C@H](C(=O)N[C@@H](CCN)C(=O)N[C@H]2CCNC(=O)[C@H]([C@@H](C)O)NC(=O)[C@H](CCN)NC(=O)[C@H](CCN)NC(=O)[C@H](CC(C)C)NC(=O)[C@@H](CC(C)C)NC(=O)[C@H](CCN)NC2=O)[C@@H](C)O)NC(=O)[C@H](CO)NC(=O)[C@H](Cc2ccc(O)cc2)NC1=O)C(C)C` [Ex. 272] (I: Ac-VCYSE[dDab][Dab]WSVCS-NH2 / II: [Dab]T[Dab][Dab][Dab][dL]L[Dab][Dab]T; disulfide I:2-I:11; amide I:5-II:N; lactam II:4-II:C), for which the MIC in data set [1] was 0.125 mg/L (≈ 0.0518 µM); in data set [2] it was 0.125 mg/L (≈ 0.0518 µM); in [3], 0.0625 mg/L (≈ 0.0259 µM); in [4] it was 0.0625 mg/L (≈ 0.0259 µM); in [5], 0.0625 mg/L (≈ 0.0259 µM); in data set [6], 0.0625 mg/L (≈ 0.0259 µM). In addition, the MIC in data set [7] was 0.25 mg/L (≈ 0.104 µM); in data set [8], 0.125 mg/L (≈ 0.0518 µM). Also, the “Hemolysis at 200 μg/mL” value in data set [9] is listed as under 1%.

The record behind these values is patent publication US11629171B2, “Beta-hairpin peptidomimetics” (POLYPHOR AG, priority 2017, dated 2023).
